Measured values: article PMC5216056 (Nature Communications, 2017)
Several values for one entry are separate records, joined by “and”; a condition that tells them apart may be missing. Equal entries are not always repeated.

Target: hCB2R (Homo sapiens, UniProt P34972)
Sequence (P34972 whole entry): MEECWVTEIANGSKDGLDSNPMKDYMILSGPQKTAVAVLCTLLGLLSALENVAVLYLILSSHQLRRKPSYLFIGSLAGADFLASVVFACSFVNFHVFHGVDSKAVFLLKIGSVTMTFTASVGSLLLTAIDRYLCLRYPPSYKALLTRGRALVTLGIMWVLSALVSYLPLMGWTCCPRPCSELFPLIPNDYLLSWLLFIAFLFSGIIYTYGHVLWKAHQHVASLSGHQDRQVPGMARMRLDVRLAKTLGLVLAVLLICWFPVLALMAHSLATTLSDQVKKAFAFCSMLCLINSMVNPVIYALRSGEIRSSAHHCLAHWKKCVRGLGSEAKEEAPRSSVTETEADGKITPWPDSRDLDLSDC
Assay: cell-based
Format: cell-based
Parameters: expressed in transfected cells; host or cells: Flp-In-293 (Invitrogen #R750-07), pcDNA5/FRT
Settings: normalized to CP55940
For `CCCCCCC(C)(C)c1cc(OC)c(C2=C[C@H]3CC[C@]2(CO)C3(C)C)c(OC)c1` [HU910], the “Emax ± SEM GIRK hCB2R” value was 74 ± 2%.

Target: T1, Rat recombinant TRPV3 (Rattus norvegicus, UniProt Q4QYD9)
T1 construct: expressed in transfected cells; host or cells: HEK293 (TRPV3-HEK-293, gift from HB Bradshaw, Indiana University)
T1 sequence (Q4QYD9 1-791): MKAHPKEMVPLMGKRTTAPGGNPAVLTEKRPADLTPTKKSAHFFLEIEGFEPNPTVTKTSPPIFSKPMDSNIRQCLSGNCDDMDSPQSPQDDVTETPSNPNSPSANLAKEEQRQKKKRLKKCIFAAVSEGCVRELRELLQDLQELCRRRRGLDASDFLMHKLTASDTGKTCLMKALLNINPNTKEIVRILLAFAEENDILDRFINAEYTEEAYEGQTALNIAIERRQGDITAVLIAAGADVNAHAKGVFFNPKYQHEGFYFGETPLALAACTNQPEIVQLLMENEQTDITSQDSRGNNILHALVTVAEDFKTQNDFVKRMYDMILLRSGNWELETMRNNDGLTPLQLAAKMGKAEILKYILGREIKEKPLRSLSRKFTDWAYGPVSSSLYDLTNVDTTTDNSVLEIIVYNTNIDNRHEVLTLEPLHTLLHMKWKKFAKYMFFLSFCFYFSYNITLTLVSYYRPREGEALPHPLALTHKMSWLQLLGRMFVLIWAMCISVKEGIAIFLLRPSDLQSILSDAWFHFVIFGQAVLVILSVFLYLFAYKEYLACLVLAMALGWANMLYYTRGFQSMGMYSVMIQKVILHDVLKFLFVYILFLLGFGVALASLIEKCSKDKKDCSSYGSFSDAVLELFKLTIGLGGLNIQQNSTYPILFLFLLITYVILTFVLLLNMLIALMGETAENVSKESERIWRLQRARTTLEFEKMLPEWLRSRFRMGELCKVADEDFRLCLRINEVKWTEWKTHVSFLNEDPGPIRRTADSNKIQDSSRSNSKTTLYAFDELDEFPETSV
Assay: cell-based
Format: cell-based
Settings: not given
For `CCCCCCC(C)(C)c1cc(OC)c(C2=C[C@H]3CC[C@]2(CO)C3(C)C)c(OC)c1` [HU910], the “TRPV3 Efficacy (% ionomycin 4μM)” value was 31.3%.
In the case of `Cc1c(C(=O)c2cccc3ccccc23)c2cccc3c2n1[C@H](CN1CCOCC1)CO3` [WIN55212-2], the “TRPV3 Efficacy (% ionomycin 4μM)” value is reported as 22.9%.

Same assay, conditions: read-out: TRPV3 Potency EC50
Compound `CCCCCCC(C)(C)c1cc(OC)c(C2=C[C@H]3CC[C@]2(CO)C3(C)C)c(OC)c1` [HU910] has an EC50 of 0.12 ± 0.05 µM.
`Cc1c(C(=O)c2cccc3ccccc23)c2cccc3c2n1[C@H](CN1CCOCC1)CO3` [WIN55212-2] gave an EC50 of 6.5 µM.

Same assay, conditions: vs thymol 100μM; read-out: TRPV3 IC50 for antagonism or desensitization
`CCCCCCC(C)(C)c1cc(OC)c(C2=C[C@H]3CC[C@]2(CO)C3(C)C)c(OC)c1` [HU910] showed an IC50 of 12.9 µM.
Compound `Cc1c(C(=O)c2cccc3ccccc23)c2cccc3c2n1[C@H](CN1CCOCC1)CO3` [WIN55212-2] has an IC50 of over 100 µM.

Target: T2, hCB1R (Homo sapiens, UniProt P21554)
T2 construct: host or cells: CHO
T2 sequence (P21554 whole entry): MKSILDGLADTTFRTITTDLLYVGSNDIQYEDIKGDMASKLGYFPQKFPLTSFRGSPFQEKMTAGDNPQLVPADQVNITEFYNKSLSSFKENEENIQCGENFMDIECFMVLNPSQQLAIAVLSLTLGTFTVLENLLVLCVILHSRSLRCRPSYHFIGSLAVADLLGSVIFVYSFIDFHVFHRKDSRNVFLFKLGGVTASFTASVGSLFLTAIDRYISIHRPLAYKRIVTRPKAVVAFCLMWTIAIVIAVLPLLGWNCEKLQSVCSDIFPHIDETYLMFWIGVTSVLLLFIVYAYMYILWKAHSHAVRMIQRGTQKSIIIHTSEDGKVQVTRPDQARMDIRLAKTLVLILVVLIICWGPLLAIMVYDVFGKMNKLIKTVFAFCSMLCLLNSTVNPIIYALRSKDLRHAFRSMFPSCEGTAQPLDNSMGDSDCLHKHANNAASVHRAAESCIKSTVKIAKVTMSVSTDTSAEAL
Assay: biochemical
Format: biochemical
Settings: not given
For `CCCCCCC(C)(C)c1cc(OC)c(C2=C[C@H]3CC[C@]2(CO)C3(C)C)c(OC)c1` [HU910], the “pEC50 ± SEM GTPγS hCB1R” value was under 5.

Target: T3, Rat recombinant TRPA1 (Rattus norvegicus, UniProt Q6RI86)
T3 construct: expressed in transfected cells
T3 sequence (Q6RI86 whole entry): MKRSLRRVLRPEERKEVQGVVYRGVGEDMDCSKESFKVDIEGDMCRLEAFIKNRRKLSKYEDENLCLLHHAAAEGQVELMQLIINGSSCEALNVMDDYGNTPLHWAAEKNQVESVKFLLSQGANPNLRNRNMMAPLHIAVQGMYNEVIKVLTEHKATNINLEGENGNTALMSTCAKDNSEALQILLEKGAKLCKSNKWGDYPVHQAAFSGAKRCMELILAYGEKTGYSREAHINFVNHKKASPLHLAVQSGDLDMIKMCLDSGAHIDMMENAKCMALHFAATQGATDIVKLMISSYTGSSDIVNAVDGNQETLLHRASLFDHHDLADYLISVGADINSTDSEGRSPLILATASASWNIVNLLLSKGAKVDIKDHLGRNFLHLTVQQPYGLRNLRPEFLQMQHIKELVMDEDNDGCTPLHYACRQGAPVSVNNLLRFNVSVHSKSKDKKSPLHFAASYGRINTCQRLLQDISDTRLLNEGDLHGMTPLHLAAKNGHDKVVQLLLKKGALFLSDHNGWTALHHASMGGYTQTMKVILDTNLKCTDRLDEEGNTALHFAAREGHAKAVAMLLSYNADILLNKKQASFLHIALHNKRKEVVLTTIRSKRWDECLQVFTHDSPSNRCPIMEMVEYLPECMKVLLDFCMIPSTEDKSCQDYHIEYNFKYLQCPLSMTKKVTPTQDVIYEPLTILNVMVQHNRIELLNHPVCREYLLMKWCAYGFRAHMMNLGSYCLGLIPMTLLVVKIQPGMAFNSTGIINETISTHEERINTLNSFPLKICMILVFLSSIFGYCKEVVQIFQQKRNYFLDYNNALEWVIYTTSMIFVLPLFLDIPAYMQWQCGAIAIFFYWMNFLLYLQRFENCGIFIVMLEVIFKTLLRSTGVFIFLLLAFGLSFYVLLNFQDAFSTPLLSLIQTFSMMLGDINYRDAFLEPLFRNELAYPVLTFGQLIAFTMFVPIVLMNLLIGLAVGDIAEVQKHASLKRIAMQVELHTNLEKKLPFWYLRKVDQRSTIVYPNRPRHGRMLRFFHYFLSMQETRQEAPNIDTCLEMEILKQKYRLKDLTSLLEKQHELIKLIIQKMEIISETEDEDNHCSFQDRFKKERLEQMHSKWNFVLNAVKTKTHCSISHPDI
Assay: cell-based
Format: cell-based
Settings: not given
In the case of `CCCCCCC(C)(C)c1cc(OC)c(C2=C[C@H]3CC[C@]2(CO)C3(C)C)c(OC)c1` [HU910], the “TRPA1 Efficacy (%AITC 100μM)” value is reported as 33.1%.
For `Cc1c(C(=O)c2cccc3ccccc23)c2cccc3c2n1[C@H](CN1CCOCC1)CO3` [WIN55212-2], the “TRPA1 Efficacy (%AITC 100μM)” value was 72.3% and 72 ± 1%.

Same assay, conditions: read-out: TRPA1 Potency EC50
In the case of `CCCCCCC(C)(C)c1cc(OC)c(C2=C[C@H]3CC[C@]2(CO)C3(C)C)c(OC)c1` [HU910], the EC50 is reported as 53.1 µM.
Compound `Cc1c(C(=O)c2cccc3ccccc23)c2cccc3c2n1[C@H](CN1CCOCC1)CO3` [WIN55212-2] has an EC50 of 2.3 µM.

Same assay, conditions: vs AITC 100μM, 5 min pre-incubation; read-out: TRPA1 IC50 for antagonism or desensitization
`CCCCCCC(C)(C)c1cc(OC)c(C2=C[C@H]3CC[C@]2(CO)C3(C)C)c(OC)c1` [HU910] gave an IC50 of over 100 µM.
`Cc1c(C(=O)c2cccc3ccccc23)c2cccc3c2n1[C@H](CN1CCOCC1)CO3` [WIN55212-2] showed an IC50 of 6.4 ± 0.6 µM.

Target: T2, hCB1R
Assay: cell-based
Settings: not given
With `CCCCCCC(C)(C)c1cc(OC)c(C2=C[C@H]3CC[C@]2(CO)C3(C)C)c(OC)c1` [HU910] the “Emax ± SEM cAMP hCB1R” value was 28 ± 8 and the “pEC50 ± SEM cAMP hCB1R” value was under 5.

Target: T4, mu (MOP) (h) (Homo sapiens, UniProt P35372)
T4 construct: CEREP (contract assay)
T4 sequence (P35372 whole entry): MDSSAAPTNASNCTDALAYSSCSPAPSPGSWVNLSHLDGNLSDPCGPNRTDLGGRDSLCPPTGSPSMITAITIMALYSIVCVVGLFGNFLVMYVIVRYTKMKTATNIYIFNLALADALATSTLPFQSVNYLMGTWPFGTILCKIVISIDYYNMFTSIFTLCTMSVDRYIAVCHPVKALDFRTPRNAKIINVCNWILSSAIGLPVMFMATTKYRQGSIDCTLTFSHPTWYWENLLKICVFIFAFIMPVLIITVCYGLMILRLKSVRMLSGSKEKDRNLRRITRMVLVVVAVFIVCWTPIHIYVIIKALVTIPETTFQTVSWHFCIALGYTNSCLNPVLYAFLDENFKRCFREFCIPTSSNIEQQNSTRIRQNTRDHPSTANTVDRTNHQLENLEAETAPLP
Assay: CEREP panel
Format: binding
Settings: 10 µM
With `CCCCCCC(C)(C)c1cc(OC)c(C2=C[C@H]3CC[C@]2(CO)C3(C)C)c(OC)c1` [HU910] the “% inhibition mu (MOP) (h)” value was 23%.
With `Cc1c(C(=O)c2cccc3ccccc23)c2cccc3c2n1[C@H](CN1CCOCC1)CO3` [WIN55212-2] the “% inhibition mu (MOP) (h)” value was 21%.

Test system: not given
Assay: not given
Settings: 1 μM
For `CCCCCCC(C)(C)c1cc(OC)c(C2=C[C@H]3CC[C@]2(CO)C3(C)C)c(OC)c1` [HU910], the CL hepatocytes mouse was 34 µL/min/mio cells.
`Cc1c(C(=O)c2cccc3ccccc23)c2cccc3c2n1[C@H](CN1CCOCC1)CO3` [WIN55212-2] gave a CL hepatocytes mouse of 568 µL/min/mio cells.

Target: T5, PPARgamma (h) (Homo sapiens, UniProt P37231)
T5 construct: CEREP (contract assay)
T5 sequence (P37231 1-505): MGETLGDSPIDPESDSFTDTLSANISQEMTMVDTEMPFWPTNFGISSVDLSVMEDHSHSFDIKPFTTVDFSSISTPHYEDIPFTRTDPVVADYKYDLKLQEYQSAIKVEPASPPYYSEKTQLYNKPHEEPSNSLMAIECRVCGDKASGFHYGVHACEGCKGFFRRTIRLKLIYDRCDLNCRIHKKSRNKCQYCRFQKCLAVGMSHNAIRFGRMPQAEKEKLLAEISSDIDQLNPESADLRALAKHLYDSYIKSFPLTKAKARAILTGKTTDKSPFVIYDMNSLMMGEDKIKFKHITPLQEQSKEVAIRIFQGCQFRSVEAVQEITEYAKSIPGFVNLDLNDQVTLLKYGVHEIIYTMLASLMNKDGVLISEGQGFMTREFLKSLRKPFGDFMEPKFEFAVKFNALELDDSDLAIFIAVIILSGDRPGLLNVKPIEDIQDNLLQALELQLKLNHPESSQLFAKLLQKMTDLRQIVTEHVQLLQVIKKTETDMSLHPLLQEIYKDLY
Assay: CEREP panel
Format: binding
Settings: 10 µM
With `CCCCCCC(C)(C)c1cc(OC)c(C2=C[C@H]3CC[C@]2(CO)C3(C)C)c(OC)c1` [HU910] the “% inhibition PPARgamma (h)” value was 17%.
With `Cc1c(C(=O)c2cccc3ccccc23)c2cccc3c2n1[C@H](CN1CCOCC1)CO3` [WIN55212-2] the “% inhibition PPARgamma (h)” value was 39%.

Target: T6, norepinephrine transporter (h) (Homo sapiens, UniProt P23975)
T6 construct: CEREP (contract assay)
T6 sequence (P23975 whole entry): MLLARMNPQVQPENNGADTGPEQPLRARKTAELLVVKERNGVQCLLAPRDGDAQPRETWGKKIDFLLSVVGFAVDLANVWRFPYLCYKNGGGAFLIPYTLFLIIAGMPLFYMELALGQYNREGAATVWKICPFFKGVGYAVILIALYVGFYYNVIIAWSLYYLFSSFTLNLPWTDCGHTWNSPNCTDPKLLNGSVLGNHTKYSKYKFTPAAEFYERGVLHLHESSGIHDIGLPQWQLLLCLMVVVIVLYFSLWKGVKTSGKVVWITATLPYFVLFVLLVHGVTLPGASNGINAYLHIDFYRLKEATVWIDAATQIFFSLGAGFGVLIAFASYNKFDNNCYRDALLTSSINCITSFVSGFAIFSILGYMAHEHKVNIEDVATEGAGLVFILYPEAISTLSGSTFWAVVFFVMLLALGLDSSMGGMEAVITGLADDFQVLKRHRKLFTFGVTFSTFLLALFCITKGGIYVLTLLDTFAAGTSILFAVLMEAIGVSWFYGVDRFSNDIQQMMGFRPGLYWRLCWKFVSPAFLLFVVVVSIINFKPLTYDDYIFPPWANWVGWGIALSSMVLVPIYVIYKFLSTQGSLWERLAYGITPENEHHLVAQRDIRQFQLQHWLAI
Assay: biochemical
Format: binding
Settings: 10 µM
With `CCCCCCC(C)(C)c1cc(OC)c(C2=C[C@H]3CC[C@]2(CO)C3(C)C)c(OC)c1` [HU910] the “% inhibition norepinephrine transporter (h)” value was 58%.
In the case of `Cc1c(C(=O)c2cccc3ccccc23)c2cccc3c2n1[C@H](CN1CCOCC1)CO3` [WIN55212-2], the “% inhibition norepinephrine transporter (h)” value is reported as 33%.

Target: T2, hCB1R
Assay: biochemical
Format: binding
Settings: CHO membranes; Leiden, HU210 and SR144528 from Roche
In the case of `CCCCCCC(C)(C)c1cc(OC)c(C2=C[C@H]3CC[C@]2(CO)C3(C)C)c(OC)c1` [HU910], the “pKi ± SEM hCB1R” value is reported as under 5.

Target: T7, PPARα (h) (Homo sapiens, UniProt Q07869)
T7 construct: CEREP (contract assay)
T7 sequence (Q07869 1-468): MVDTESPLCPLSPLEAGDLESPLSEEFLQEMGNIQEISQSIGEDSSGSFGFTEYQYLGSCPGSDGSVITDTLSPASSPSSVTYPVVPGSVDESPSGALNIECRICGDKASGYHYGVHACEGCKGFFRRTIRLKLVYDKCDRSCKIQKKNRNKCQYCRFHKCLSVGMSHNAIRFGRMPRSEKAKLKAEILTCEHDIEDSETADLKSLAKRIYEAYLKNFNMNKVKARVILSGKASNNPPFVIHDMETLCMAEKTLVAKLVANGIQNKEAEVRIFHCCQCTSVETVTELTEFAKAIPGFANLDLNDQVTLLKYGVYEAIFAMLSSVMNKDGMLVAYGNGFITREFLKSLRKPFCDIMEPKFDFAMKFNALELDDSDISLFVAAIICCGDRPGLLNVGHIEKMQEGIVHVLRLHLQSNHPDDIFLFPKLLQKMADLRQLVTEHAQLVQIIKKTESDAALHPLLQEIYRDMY
Assay: CEREP panel
Format: binding
Settings: 10 µM
For `CCCCCCC(C)(C)c1cc(OC)c(C2=C[C@H]3CC[C@]2(CO)C3(C)C)c(OC)c1` [HU910], the “% inhibition PPARα (h)” value was -28%.
For `Cc1c(C(=O)c2cccc3ccccc23)c2cccc3c2n1[C@H](CN1CCOCC1)CO3` [WIN55212-2], the “% inhibition PPARα (h)” value was -4%.

Test system: not listed separately
Assay: logD distribution coefficient
Settings: distribution coefficient
Compound `Cc1c(C(=O)c2cccc3ccccc23)c2cccc3c2n1[C@H](CN1CCOCC1)CO3` [WIN55212-2] has a logD of 3.67±0.03.

Test system: PCP
Assay: not given
Format: binding
Settings: 10 µM
With `CCCCCCC(C)(C)c1cc(OC)c(C2=C[C@H]3CC[C@]2(CO)C3(C)C)c(OC)c1` [HU910] the “% inhibition PCP” value was -25%.
In the case of `Cc1c(C(=O)c2cccc3ccccc23)c2cccc3c2n1[C@H](CN1CCOCC1)CO3` [WIN55212-2], the “% inhibition PCP” value is reported as -3%.

Target: T8, Rat recombinant TRPM8 (Rattus norvegicus, UniProt Q8R455)
T8 construct: expressed in transfected cells; host or cells: HEK293 (TRPM8-HEK-293, gift from Mario van der Stelt)
T8 sequence (Q8R455 whole entry): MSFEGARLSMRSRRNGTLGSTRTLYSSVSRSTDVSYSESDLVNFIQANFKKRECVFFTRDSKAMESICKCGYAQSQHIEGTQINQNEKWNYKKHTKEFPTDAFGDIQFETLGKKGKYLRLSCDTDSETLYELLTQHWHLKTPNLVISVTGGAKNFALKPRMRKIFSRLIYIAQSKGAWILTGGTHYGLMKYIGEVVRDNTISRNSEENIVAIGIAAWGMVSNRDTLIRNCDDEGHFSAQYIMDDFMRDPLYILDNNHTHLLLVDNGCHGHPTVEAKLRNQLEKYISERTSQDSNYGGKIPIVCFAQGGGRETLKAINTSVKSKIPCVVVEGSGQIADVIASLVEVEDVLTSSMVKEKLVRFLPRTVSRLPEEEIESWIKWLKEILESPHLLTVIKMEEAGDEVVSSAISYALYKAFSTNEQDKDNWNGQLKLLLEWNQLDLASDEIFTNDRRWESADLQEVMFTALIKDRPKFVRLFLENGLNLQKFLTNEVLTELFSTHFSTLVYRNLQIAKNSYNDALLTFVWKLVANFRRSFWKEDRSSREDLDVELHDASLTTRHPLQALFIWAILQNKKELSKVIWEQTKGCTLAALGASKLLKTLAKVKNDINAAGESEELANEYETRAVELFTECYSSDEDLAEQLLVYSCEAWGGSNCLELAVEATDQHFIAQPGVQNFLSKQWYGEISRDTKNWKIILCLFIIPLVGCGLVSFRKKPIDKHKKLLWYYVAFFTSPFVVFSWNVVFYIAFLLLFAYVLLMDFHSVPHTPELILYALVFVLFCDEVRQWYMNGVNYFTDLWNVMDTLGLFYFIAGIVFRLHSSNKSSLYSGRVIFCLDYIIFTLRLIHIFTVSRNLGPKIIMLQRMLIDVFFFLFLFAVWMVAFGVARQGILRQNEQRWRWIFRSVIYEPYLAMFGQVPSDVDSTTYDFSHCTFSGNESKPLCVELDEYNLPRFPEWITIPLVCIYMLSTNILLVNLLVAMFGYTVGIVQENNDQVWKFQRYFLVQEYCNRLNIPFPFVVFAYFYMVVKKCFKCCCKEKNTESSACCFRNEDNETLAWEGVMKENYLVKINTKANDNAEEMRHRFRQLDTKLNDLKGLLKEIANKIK
Assay: TRP channel [Ca2+]i assay
Format: cell-based
Settings: vs icilin 0.1μM (second value in cell); read-out: TRPM8 IC50 for antagonism of icilin
With `Cc1c(C(=O)c2cccc3ccccc23)c2cccc3c2n1[C@H](CN1CCOCC1)CO3` [WIN55212-2] the IC50 was 19 ± 2.2 µM.

Same assay, conditions: vs icilin […]; read-out: TRPM8 IC50 for antagonism of icilin
Work on `CCCCCCC(C)(C)c1cc(OC)c(C2=C[C@H]3CC[C@]2(CO)C3(C)C)c(OC)c1` [HU910] yielded an IC50 of over 100 µM.
For `Cc1c(C(=O)c2cccc3ccccc23)c2cccc3c2n1[C@H](CN1CCOCC1)CO3` [WIN55212-2], the IC50 was 72.9 ± 4.5 µM.
